Data set [1] deals with T1, CHO cell sialidase (Cricetulus griseus, UniProt Q64393).
T1 construct: The sialidase described was purified from the cell culture fluid of a single production cell line (CHO 14.16); endogenous in cells; host or cells: CHO 14.16 cells (purified from the cell culture fluid)
In words: Inhibition of CHO cell sialidase (competitive inhibitor study). In kind it is biochemical, Chinese hamster.

The target in data set [2] is cytosolic sialidase from rat muscle. To be noted: cytosol, previously reported data, unit from footnote c; cited from earlier work.
Data set [3] has as its system lysosomal sialidase (fibroblasts). The following applies: cited from earlier work.
The test system of data set [4] is plasma membrane sialidase (adenovirus transformed kidney cells). To be noted: cited from earlier work.
In data set [5] the target is T1, CHO cell sialidase. Nature of the data set: Sialidase kinetic constants with soluble sialylglycoconjugate substrates. Format: biochemical, Chinese hamster. The following applies: for substrate cleavage in words: purified enzyme. On the procedure: Fluorescent sialidase assays: Standard assay conditions for monitoring the enzyme activity during purification using the fluorescent substrate analog are: 1.3 mM 4-MUNeu5Ac, 50 mM phosphate buffer, pH 6.8, 0.3 mg bovine serum albumin and varying amounts of enzyme in a total volume of 30 μl. After addition of enzyme the samples are incubated at 37° C. in a shaking water bath for 5 minutes. The reaction is terminated and the fluorescence of the liberated umbelliferone is enhanced by the addition of 2 ml of 80 mM glycine-carbonate buffer, pH 9.7. Quantification of the product is made by measuring the fluorescence of the samples with excitation at 365 nm and emission at 450 nm using a standard of 4-methyl umbelliferone. A unit of enzyme activity is defined as a μmol/min of sialic acid liberated.
(§1) Sialidase assays with natural substrates: When natural substrates are tested with the purified enzyme, the amount of released sialic acid is measured using the thiobarbituric acid assay as modified by Uchida [Uchida et al. J. Biochem., 82:1425 (1977)] using sialic acid as standard. The amount of sialic acid in control samples, which include a complete assay mixture incubated without added enzyme is subtracted from each determination. All samples are cleared by centrifugation (1,000×G, 10 min) prior to determining the absorbance at 540 nm.
Enzyme kinetic parameters: Assay conditions (time and added enzyme) are modified for each substrate so that initial reaction rates are measured. Kinetic parameters are obtained from double reciprocal plots of the substrate saturation curves [Segel, I. H. John Wiley, New York, Enzyme Kinetics, 18 (1975)].
Substrate specificity: Several classes of sialyl glycoconjugates were tested as substrates, TABLE II. […] Transferrin is isolated from human serum and contains only 2,6 linked sialic acid residues [Baenziger, J. U. The Plasma Proteins 2nd Ed. (Putnam, F. W., ed.) 272-398, Academic Press, New York (1984)].

In data set [6] the target is T1, CHO cell sialidase. Nature of the data set: Sialidase activity toward gangliosides and colominic acid (thiobarbiturate assay). The following applies: for Relative Activity: substrate 4 mM, initial rate, pH 6.0, cholic acid (0.05%) with lipid substrates, α-2,3 sialyllactose = 100; for ganglioside hydrolysis in words: cholic acid as solubilizing agent. In kind it is biochemical, Chinese hamster. Set-up: key to Relative Activity: NR: no reaction products detected. Here is the method:
as §1
Some gangliosides are degraded by the sialidase (TABLE III), although these substrates require the presence of cholic acid as a solubilizing agent in the assay for optimal activity.

T1 sequence (Q64393 whole entry): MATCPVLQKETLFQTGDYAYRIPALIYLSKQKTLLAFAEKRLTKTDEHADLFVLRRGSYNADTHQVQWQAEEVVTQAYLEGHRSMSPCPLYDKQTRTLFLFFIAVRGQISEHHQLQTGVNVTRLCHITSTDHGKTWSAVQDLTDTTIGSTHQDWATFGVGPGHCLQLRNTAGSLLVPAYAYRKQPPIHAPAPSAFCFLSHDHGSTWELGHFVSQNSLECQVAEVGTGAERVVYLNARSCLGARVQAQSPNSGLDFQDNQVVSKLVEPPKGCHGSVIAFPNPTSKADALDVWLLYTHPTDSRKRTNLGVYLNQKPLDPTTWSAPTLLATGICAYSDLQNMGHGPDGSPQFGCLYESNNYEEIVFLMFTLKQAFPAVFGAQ

On to `CC(=O)N[C@H]1[C@H]([C@H](O)[C@H](O)CSc2ccc(N=[N+]=[N-])cc2[N+](=O)[O-])OC(C(=O)O)=C[C@@H]1O` [9-PANP-Neu5Ac2en, 9-S-(4'-azido-2'-nitro-phenyl)-5-acetamido-2,6 anhydro-9-thio-2,5,9-trideoxy-D-glycero-D-galacto-non-2-enonic acid], for which the inhibition in words entry on CHO cell sialidase [1] is recorded as “weakly inhibited”.
As usually defined, the Ki is a measure of affinity in units of concentration, obtained from inhibition or displacement. Regarding `CC(=O)N[C@H]1[C@H]([C@H](O)[C@H](O)CN=[N+]=[N-])OC(C(=O)O)=C[C@@H]1O` [9-azido-Neu5Ac2en, 5-acetamido-2,6-anhydro-9-azido-3,5,9-trideoxy-D-glycero-D-galacto-non-2-enonic acid], the inhibition in words result on CHO cell sialidase [1] is “moderately inhibited”; in data set [3], “strongly inhibited”; in data set [4] (plasma membrane sialidase), “strongly inhibited”. Also, the Ki is 50 µM in data set [2] and 10 µM in data set [4] (adenovirus transformed kidney cells, plasma membrane, previously reported data, unit from footnote c).
In the case of `CC(=O)N[C@H]1[C@H]([C@H](O)[C@H](O)CO)O[C@@](O[C@H](CO)[C@@H](O)[C@@H]2OC(O)(C(=O)O)C[C@H](O)[C@H]2NC(C)=O)(C(=O)O)C[C@@H]1O` (some centres unmarked) [Sialic acid dimer], the “substrate cleavage in words” value at CHO cell sialidase [5] is given as “substrates for the enzyme”.
On to `CC(=O)N[C@H]1[C@H]([C@H](O)[C@H](O)CO)O[C@@](O[C@H]2[C@@H](O)[C@@H](CO)O[C@@H](O[C@H]3[C@H](O)[C@@H](O)C(O)O[C@@H]3CO)[C@@H]2O)(C(=O)O)C[C@@H]1O` (some centres unmarked) [sialyl lactose], for which the “substrate cleavage in words” value on CHO cell sialidase [5] is “readily cleaved”.
Regarding `CC(=O)N[C@H]1[C@H]([C@H](O)[C@H](O)CO)O[C@@](O[C@H]2[C@@H](O)[C@@H](CO)O[C@@H](O[C@H]3[C@H](O)[C@@H](O)C(O)O[C@@H]3CO)[C@@H]2O)(C(=O)O)C[C@@H]1O` (stereo partly drawn) [α-2,3 Sialyllactose], the “Relative Activity” value at CHO cell sialidase [6] is 100%.
In the case of Colominic Acid, on CHO cell sialidase [5], the “substrate cleavage in words” value is given as “hydrolyzed but at substantially reduced rates”. Further, the “Relative Activity” value at CHO cell sialidase [6] is listed as 4%.
As for II^3 (NeuAc)2 -GgOse4 Cer [GD1b], at CHO cell sialidase [6], the “ganglioside hydrolysis in words” value is “not substrates” and the “Relative Activity” value is on record as “NR”.
As to II^3 NeuAc-GgOse3 Cer [GM2], on CHO cell sialidase [6], the “ganglioside hydrolysis in words” value is on record as “not substrates” and the “Relative Activity” value is on record as “NR”.
The matching figures for II^3 NeuAc-GgOse4 Cer [GM1]: “not substrates” and “NR”.
The matching figures for II^3 NeuAc-LacCer [GM3]: “hydrolyzed at comparable rates” and 29%.
On to “IV^3 NeuAc, II^3 (NeuAc)2 -GgOse4 Cer [GT1b]”, for which, at CHO cell sialidase [6], the “ganglioside hydrolysis in words” value was “hydrolyzed at comparable rates” and the “Relative Activity” value came out at 23%.
The matching figures for “IV^3 NeuAc, II^3 NeuAc-GgOse4 Cer [GD1a]”: “hydrolyzed at comparable rates” and 21%.
The term Vmax denotes the rate approached at saturating substrate. As for “Transferrin: isolated from human serum and contains only 2,6 linked sialic acid residues”, the maximal velocity (Vmax) with CHO cell sialidase [5] (apparent, standard assay conditions, average of duplicates, relative error about 10%) is 2 µmol/min/mg. Besides, in the data set with CHO cell sialidase [5], the “substrate cleavage in words” value was “cleaved much more slowly than that bound to recombinant human deoxyribonuclease I”. Also, the “Km values compared (in words)” value in the data set with CHO cell sialidase [5] (transferrin versus deoxyribonuclease I) is “nearly identical”.
